Assay results: patent US6812229B1, “Carbamate derivative and agricultural/horticultural fungicide” (Kumiai Chemical Industry Co., Ltd., priority 1999, dated 2004)

Columns and labels:
Erysiphe graminis = test: Test for preventive effect on wheat powdery mildew; format: in vivo; details: wheat seedlings (Norin-61-go), two-leaf stage, 500 ppm active ingredient, wettable powder, total diseased area of first leaves 10 days after inoculation
Experimental: 10 Wheat seeds (variety: Norin-61-go) were sown in each plastic pot having a diameter of 6 cm, and grown in a greenhouse. Wheat seedlings which reached a two-leaf stage were treated with 10 ml per pot of aqueous solutions of wettable powders prepared in accordance with Formulation Example 2, at a concentration of 500 ppm in terms of the active ingredients, and dried in the air. Then, the seedlings were inoculated with Erysiphe graminis spore and controlled in a greenhouse. 10 Days after the inoculation, the total diseased area of the first leaves in each pot was observed and evaluated on the basis of the standards shown in Table 21.

Septoria nodorum = test: Test for preventive effect on Septoria leaf blotch of wheat; format: in vivo; details: wheat seedlings (Norin-61-go), two-leaf stage, 50 ppm active ingredient, 10 ml per pot, evaluated 10 days after inoculation with Septoria nodorum
Description: [table] 10 Wheat seeds (variety: Norin-61-go) were sown in each plastic pot having a diameter of 6 cm, and grown in a greenhouse. […] Then, the seedlings were inoculated with Septoria nodorum […] controlled in a greenhouse. 10 Days after the inoculation, the total diseased area of the first leaves in each pot was observed and evaluated on the basis of the standards shown in Table 21.

Compound: COC(=O)NCc1cc(C(C)=NOCc2ccccc2Cl)ccc1Cl (single isomer, unassigned) [A-84]
- Evaluation (Erysiphe graminis): A (No diseased area)

Compound: COC(=O)NCc1cccc(C(C)=NOCc2ccccc2Cl)c1 [A-338]
- Evaluation (total diseased area of the first leaves) (Septoria nodorum): A (No diseased area)

Compound: COC(=O)NCc1cccc(C(C)=NOCc2cccc(Cl)c2)c1 [A-339]
- Evaluation (total diseased area of the first leaves) (Septoria nodorum): A (No diseased area)

Compound: COC(=O)NCc1cccc(C(C)=NOCc2ccc(Cl)cc2)c1 [A-340]
- Evaluation (total diseased area of the first leaves) (Septoria nodorum): B (Diseased area of less than 5%)

Compound: COC(=O)NCc1cc(C(=NOCc2ccccc2Cl)C2CC2)ccc1Cl [A-341]
- Evaluation (total diseased area of the first leaves) (Septoria nodorum): A (No diseased area)

Compound: COC(=O)NCc1cc(C(C)=NOCc2ccccc2F)ccc1C [A-342]
- Evaluation (total diseased area of the first leaves) (Septoria nodorum): A (No diseased area)

Compound: COC(=O)NCc1cccc(C(C)=NOCc2ccccc2C)c1 [A-343]
- Evaluation (total diseased area of the first leaves) (Septoria nodorum): A (No diseased area)

Compound: COC(=O)NCc1cccc(C(C)=NOCc2cccc(C)c2)c1 [A-344]
- Evaluation (total diseased area of the first leaves) (Septoria nodorum): A (No diseased area)

Compound: COC(=O)NCc1cccc(C(C)=NOCc2ccc(C)cc2)c1 [A-345]
- Evaluation (total diseased area of the first leaves) (Septoria nodorum): B (Diseased area of less than 5%)

Compound: COC(=O)NCc1cccc(C(C)=NOCc2ccccc2C(F)(F)F)c1 [A-348]
- Evaluation (total diseased area of the first leaves) (Septoria nodorum): B (Diseased area of less than 5%)

Compound: COC(=O)NCc1cccc(C(C)=NOCc2cccc(C(F)(F)F)c2)c1 [A-349]
- Evaluation (total diseased area of the first leaves) (Septoria nodorum): A (No diseased area)

Compound: COC(=O)NCc1cc(C(C)=NOCc2ccccn2)cc(C)c1Cl [A-355]
- Evaluation (total diseased area of the first leaves) (Septoria nodorum): B (Diseased area of less than 5%)

Compound: COC(=O)NCc1cc(C(C)=NOCc2ccccc2C#N)cc(C)c1Cl [A-356]
- Evaluation (total diseased area of the first leaves) (Septoria nodorum): A (No diseased area)

Compound: COC(=O)NCc1cc(C(C)=NOCc2ccccc2Cl)cc(C)c1C [A-358]
- Evaluation (total diseased area of the first leaves) (Septoria nodorum): A (No diseased area)

Compound: COC(=O)NCc1cc(C(=NOCc2ccccc2C)C2CC2)ccc1Cl [A-359]
- Evaluation (total diseased area of the first leaves) (Septoria nodorum): B (Diseased area of less than 5%)

Compound: COC(=O)NCc1cc(C(C)=NOCc2ccccc2C#N)ccc1C [A-360]
- Evaluation (total diseased area of the first leaves) (Septoria nodorum): A (No diseased area)

Compound: COC(=O)N(Cc1cc(C(C)=NOCc2ccccc2C#N)ccc1C)Cc1ccccc1C#N [A-361]
- Evaluation (total diseased area of the first leaves) (Septoria nodorum): B (Diseased area of less than 5%)

Compound: COC(=O)NCc1cc(C(C)=NOCc2cccc(C)c2)ccc1C [A-362]
- Evaluation (total diseased area of the first leaves) (Septoria nodorum): A (No diseased area)

Compound: COC(=O)NCc1cc(C(C)=NOCc2ccc(C)cc2)ccc1C [A-363]
- Evaluation (total diseased area of the first leaves) (Septoria nodorum): A (No diseased area)

Compound: COC(=O)NCc1cc(C(C)=NOCc2cccc(Cl)c2)ccc1C [A-364]
- Evaluation (total diseased area of the first leaves) (Septoria nodorum): A (No diseased area)

Compound: COC(=O)NCc1cc(C(C)=NOCc2ccc(Cl)cc2)ccc1C [A-365]
- Evaluation (total diseased area of the first leaves) (Septoria nodorum): B (Diseased area of less than 5%)

Compound: CON=C(C)CON=C(C)c1ccc(C)c(CNC(=O)OC)c1 [A-368]
- Evaluation (total diseased area of the first leaves) (Septoria nodorum): A (No diseased area)

Compound: COC(=O)NCc1cc(C(C)=NOCCc2ccccc2)ccc1C [A-369]
- Evaluation (total diseased area of the first leaves) (Septoria nodorum): A (No diseased area)

Compound: COC(=O)NCc1cc(C(C)=NOCc2cc(C)ccn2)ccc1Cl [A-370]
- Evaluation (total diseased area of the first leaves) (Septoria nodorum): A (No diseased area)

Compound: COC(=O)NCc1cc(C(C)=NOCc2cccc(Cl)c2)ccc1F [A-371]
- Evaluation (total diseased area of the first leaves) (Septoria nodorum): A (No diseased area)

Compound: COC(=O)NCc1cc(C(C)=NOCc2ccc(Cl)cc2)ccc1F [A-372]
- Evaluation (total diseased area of the first leaves) (Septoria nodorum): A (No diseased area)

Compound: COC(=O)NCc1cc(C(C)=NOCc2cccc(C)c2)ccc1F [A-373]
- Evaluation (total diseased area of the first leaves) (Septoria nodorum): A (No diseased area)

Compound: COC(=O)NCc1cc(C(C)=NOCc2ccc(C)cc2)ccc1F [A-374]
- Evaluation (total diseased area of the first leaves) (Septoria nodorum): A (No diseased area)

Compound: COC(=O)NCc1cc(C(C)=NOCc2cccc(C(F)(F)F)c2)ccc1F [A-375]
- Evaluation (total diseased area of the first leaves) (Septoria nodorum): B (Diseased area of less than 5%)

Compound: COC(=O)NCc1cc(C(C)=NOCc2ccc(C(F)(F)F)cc2)ccc1F [A-376]
- Evaluation (total diseased area of the first leaves) (Septoria nodorum): B (Diseased area of less than 5%)

Compound: COC(=O)NCc1cc(C(C)=NOCc2ccccc2C#N)ccc1F [A-377]
- Evaluation (total diseased area of the first leaves) (Septoria nodorum): A (No diseased area)

Compound: COC(=O)NCc1cc(C(C)=NOC(C)c2ccccc2Cl)ccc1F (centres unmarked) [A-378]
- Evaluation (total diseased area of the first leaves) (Septoria nodorum): A (No diseased area)

Compound: COC(=O)NCc1cc(C(C)=NOC(C)c2cccc(Cl)c2)ccc1F (centres unmarked) [A-379]
- Evaluation (total diseased area of the first leaves) (Septoria nodorum): A (No diseased area)

Compound: COC(=O)NCc1cc(C(C)=NOC(C)c2ccc(Cl)cc2)ccc1F (centres unmarked) [A-380]
- Evaluation (total diseased area of the first leaves) (Septoria nodorum): A (No diseased area)

Compound: COC(=O)NCc1c(C)c(C)c(C)c(C(C)=NOCc2ccccc2)c1C [A-381]
- Evaluation (total diseased area of the first leaves) (Septoria nodorum): A (No diseased area)

Compound: COC(=O)NCc1c(Cl)c(Cl)c(Cl)c(C(C)=NOCc2ccccc2)c1Cl [A-382]
- Evaluation (total diseased area of the first leaves) (Septoria nodorum): B (Diseased area of less than 5%)

Compound: COC(=O)NCc1cccc(C(C)=NOc2cccc(Cl)c2C#N)c1 [A-385]
- Evaluation (total diseased area of the first leaves) (Septoria nodorum): B (Diseased area of less than 5%)

Compound: COC(=O)NCc1cccc(C(C)=NOCc2cccc(Cl)c2Cl)c1 [A-386]
- Evaluation (total diseased area of the first leaves) (Septoria nodorum): B (Diseased area of less than 5%)

Compound: COC(=O)NCc1cccc(C(C)=NOCc2ccc(Cl)cc2Cl)c1 [A-387]
- Evaluation (total diseased area of the first leaves) (Septoria nodorum): B (Diseased area of less than 5%)

Compound: COC(=O)NCc1cccc(C(C)=NOCc2cc(Cl)ccc2Cl)c1 [A-388]
- Evaluation (total diseased area of the first leaves) (Septoria nodorum): A (No diseased area)

Compound: COC(=O)NCc1cccc(C(C)=NOCc2c(Cl)cccc2Cl)c1 [A-389]
- Evaluation (total diseased area of the first leaves) (Septoria nodorum): A (No diseased area)

Compound: COC(=O)NCc1cc(C(C)=NOCc2cccc(C#N)n2)ccc1Cl [A-396]
- Evaluation (total diseased area of the first leaves) (Septoria nodorum): A (No diseased area)

Compound: COC(=O)NCc1cc(C(C)=NOCc2cccnc2C#N)ccc1Cl [A-397]
- Evaluation (total diseased area of the first leaves) (Septoria nodorum): A (No diseased area)

Compound: COC(=O)NCc1cccc(C(C)=NOCc2ccccc2F)c1 [A-398]
- Evaluation (total diseased area of the first leaves) (Septoria nodorum): A (No diseased area)

Compound: COC(=O)NCc1cccc(C(C)=NOCc2ccc(F)cc2)c1 [A-400]
- Evaluation (total diseased area of the first leaves) (Septoria nodorum): B (Diseased area of less than 5%)

Compound: COC(=O)NCc1cc(C(C)=NOCC(=O)c2ccc(Cl)cc2)ccc1Cl [A-403]
- Evaluation (total diseased area of the first leaves) (Septoria nodorum): A (No diseased area)

Compound: COC(=O)NCc1cc(C(C)=NOCC(=O)c2ccc(OC)cc2)ccc1Cl [A-404]
- Evaluation (total diseased area of the first leaves) (Septoria nodorum): A (No diseased area)

Compound: COC(=O)NCc1cc(C(=NOCc2ccccn2)C2CC2)ccc1Cl [A-405]
- Evaluation (total diseased area of the first leaves) (Septoria nodorum): A (No diseased area)

Compound: COC(=O)NCc1cc(C(C)=NOC(C)c2ccccc2C)ccc1Cl (centres unmarked) [A-406]
- Evaluation (total diseased area of the first leaves) (Septoria nodorum): A (No diseased area)

Compound: COC(=O)NCc1cc(C(C)=NOC(C)c2cccc(C)c2)ccc1Cl (centres unmarked) [A-407]
- Evaluation (total diseased area of the first leaves) (Septoria nodorum): A (No diseased area)

Compound: COC(=O)NCc1cc(C(C)=NOCc2ccc(C(C)=O)o2)ccc1Cl [A-410]
- Evaluation (total diseased area of the first leaves) (Septoria nodorum): A (No diseased area)

Compound: COC(=O)NCc1cc(C(C)=NOC2C=CCC2OC)ccc1Cl (centres unmarked) [A-411]
- Evaluation (total diseased area of the first leaves) (Septoria nodorum): A (No diseased area)

Compound: CON=C(C)C(ON=C(C)c1ccc(Cl)c(CNC(=O)OC)c1)C(C)=NOC (centres unmarked) [A-412]
- Evaluation (total diseased area of the first leaves) (Septoria nodorum): A (No diseased area)

Compound: COC(=O)NCc1cc(C(C)=NOCc2nc(C)cc(C)n2)ccc1Cl [A-413]
- Evaluation (total diseased area of the first leaves) (Septoria nodorum): A (No diseased area)

Compound: COC(=O)NCc1cc(C(C)=NOCc2ccccc2[N+](=O)[O-])ccc1Cl [A-414]
- Evaluation (total diseased area of the first leaves) (Septoria nodorum): A (No diseased area)

Compound: COC(=O)NCc1cc(C(C)=NOCc2cccs2)ccc1Cl [A-415]
- Evaluation (total diseased area of the first leaves) (Septoria nodorum): A (No diseased area)

Compound: COC(=O)NCc1cc(C(C)=NOCc2cscn2)ccc1Cl [A-416]
- Evaluation (total diseased area of the first leaves) (Septoria nodorum): A (No diseased area)

Compound: COC(=O)NCc1cc(C(C)=NOCc2cccc(OC)n2)ccc1Cl [A-417]
- Evaluation (total diseased area of the first leaves) (Septoria nodorum): A (No diseased area)

Compound: CCOc1cccc(CON=C(C)c2ccc(Cl)c(CNC(=O)OC)c2)n1 [A-418]
- Evaluation (total diseased area of the first leaves) (Septoria nodorum): A (No diseased area)

Compound: COC(=O)NCc1cc(C(C)=NOCc2cccc(C#N)c2)ccc1F [A-428]
- Evaluation (total diseased area of the first leaves) (Septoria nodorum): A (No diseased area)

Compound: COC(=O)NCc1cc(C(C)=NOCc2cccc(C)n2)ccc1F [A-430]
- Evaluation (total diseased area of the first leaves) (Septoria nodorum): A (No diseased area)

Compound: COC(=O)NCc1cc(C(C)=NOCc2ccc3ccccc3n2)ccc1Cl [A-431]
- Evaluation (total diseased area of the first leaves) (Septoria nodorum): A (No diseased area)

Compound: COC(=O)NCc1cc(C(C)=NOCc2nc(C(F)(F)F)cs2)ccc1Cl [A-432]
- Evaluation (total diseased area of the first leaves) (Septoria nodorum): A (No diseased area)

Compound: COC(=O)NCc1cc(C(C)=NOCc2cccc(C)[n+]2[O-])ccc1Cl [A-433]
- Evaluation (total diseased area of the first leaves) (Septoria nodorum): B (Diseased area of less than 5%)

Compound: COC(=O)NCc1cc(C=NOCc2ccc(Cl)cc2)ccc1Cl [A-438]
- Evaluation (total diseased area of the first leaves) (Septoria nodorum): B (Diseased area of less than 5%)

Compound: COC(=O)NCc1cc(C(C)=NOCc2ccc3ccccc3n2)ccc1F [A-440]
- Evaluation (total diseased area of the first leaves) (Septoria nodorum): B (Diseased area of less than 5%)

Compound: COC(=O)NCc1cc(C(C)=NOCC2CCCO2)ccc1Cl (centres unmarked) [A-443]
- Evaluation (total diseased area of the first leaves) (Septoria nodorum): B (Diseased area of less than 5%)

Compound: COC(=O)NCc1cc(C(C)=NOC2C=CC(C(Cl)(Cl)Cl)C2)ccc1Cl (centres unmarked) [A-444]
- Evaluation (total diseased area of the first leaves) (Septoria nodorum): B (Diseased area of less than 5%)
